Experimental data: PubChem BioAssay AID1259407 (Chemical Carcinogenesis Research Information System (CCRIS), 2018)
Activity calls are given as the source filed them. The rule behind the calls is not given here.

Test system: CCRIS mutagenicity, Ames/micronucleus/aberration tests
Experiment: CCRIS mutagenicity studies
[1] = Test System: AMES SALMONELLA TYPHIMURIUM, Strain/Indicator: TA98, Metabolic Activation: RAT, LIVER, S-9, AROCLOR 1254, Method: STANDARD PLATE
[2] = Test System: AMES SALMONELLA TYPHIMURIUM, Strain/Indicator: TA98, Metabolic Activation: RAT, LIVER, S-9, KC500 OR PHENOBARBITAL, Method: LIQUID SUSPENSION
[3] = Test System: AMES SALMONELLA TYPHIMURIUM, Strain/Indicator: TA100, Metabolic Activation: RAT, LIVER, S-9, KC500 OR PHENOBARBITAL, Method: LIQUID SUSPENSION
[4] = Test System: AMES SALMONELLA TYPHIMURIUM, Strain/Indicator: TA98, Metabolic Activation: NONE, Method: PREINCUBATION
[5] = Test System: AMES SALMONELLA TYPHIMURIUM, Strain/Indicator: TA100, Metabolic Activation: NONE, Method: PREINCUBATION
[6] = Test System: AMES SALMONELLA TYPHIMURIUM, Strain/Indicator: TA1535, Metabolic Activation: NONE, Method: PREINCUBATION
[7] = Test System: AMES SALMONELLA TYPHIMURIUM, Strain/Indicator: TA1537, Metabolic Activation: NONE, Method: PREINCUBATION

`COc1cc(N=Nc2ccccc2)ccc1N` was tested, and the mutagenic call (Test System: AMES SALMONELLA TYPHIMURIUM, Strain/Indicator: TA98, Metabolic Activation: RAT LIVER, CYTOSOL, AROCLOR 1254, Method: PREINCUBATION) was “inactive; negative”, the mutagenic call (Test System: AMES SALMONELLA TYPHIMURIUM, Strain/Indicator: TA98, Metabolic Activation: RAT LIVER, MICROSOMES, AROCLOR 1254, Method: PREINCUBATION) was “active; positive” and the mutagenic call (Test System: AMES SALMONELLA TYPHIMURIUM, Strain/Indicator: TA98, Metabolic Activation: RAT, LIVER, MICROSOMES, 3-METHOXY-4-AMINOAZOBENZENE, Method: PREINCUBATION) was “inactive; negative”. For the same compound, the mutagenic call (Test System: AMES SALMONELLA TYPHIMURIUM, Strain/Indicator: TA98, Metabolic Activation: RAT, LIVER, MICROSOMES, AROCLOR 1254, Method: PREINCUBATION) was “active; positive”, the mutagenic call (Test System: AMES SALMONELLA TYPHIMURIUM, Strain/Indicator: TA98, Metabolic Activation: RAT, LIVER, MICROSOMES, Method: PREINCUBATION) was “inactive; negative” and the mutagenic call [1] was “active; positive”. The mutagenic call [2] was “active; positive”, the mutagenic call [3] was “active; positive” and the mutagenic call (Test System: AMES SALMONELLA TYPHIMURIUM, Strain/Indicator: TA1538, Metabolic Activation: RAT, LIVER, S-9, AROCLOR 1254, Method: STANDARD PLATE) was “active; positive”.

With `COc1ccc(CN(CC[N+](C)(C)[O-])c2ccccn2)cc1` the mutagenic call (Test System: AMES SALMONELLA TYPHIMURIUM, Strain/Indicator: TA97, Metabolic Activation: NONE, Method: STANDARD PLATE) was “inactive; negative”, the mutagenic call (Test System: AMES SALMONELLA TYPHIMURIUM, Strain/Indicator: TA97, Metabolic Activation: RAT, LIVER, S-9, AROCLOR 1254, Method: STANDARD PLATE) was “inactive; negative” and the mutagenic call (Test System: AMES SALMONELLA TYPHIMURIUM, Strain/Indicator: TA98, Metabolic Activation: NONE, Method: STANDARD PLATE) was “inactive; negative”. For the same compound, the mutagenic call [1] was “inactive; negative”, the mutagenic call (Test System: AMES SALMONELLA TYPHIMURIUM, Strain/Indicator: TA100, Metabolic Activation: NONE, Method: STANDARD PLATE) was “inactive; negative” and the mutagenic call (Test System: AMES SALMONELLA TYPHIMURIUM, Strain/Indicator: TA100, Metabolic Activation: RAT, LIVER, S-9, AROCLOR 1254, Method: STANDARD PLATE) was “inactive; negative”. The mutagenic call (Test System: AMES SALMONELLA TYPHIMURIUM, Strain/Indicator: TA102, Metabolic Activation: NONE, Method: STANDARD PLATE) was “inactive; negative” and the mutagenic call (Test System: AMES SALMONELLA TYPHIMURIUM, Strain/Indicator: TA102, Metabolic Activation: RAT, LIVER, S-9, AROCLOR 1254, Method: STANDARD PLATE) was “inactive; negative”.

`COc1ccc([N+](=O)[O-])ccc1=O` was tested, and the mutagenic call [2] was “active; positive” and the mutagenic call [3] was “active; positive”.

`CC(C)=O` was tested, and the mutagenic call (End Point: IN VITRO CHROMOSOMAL ABERRATIONS, Test System: CHO-LB CELLS, Metabolic Activation: NONE) was “inactive; negative”, the mutagenic call (End Point: IN VITRO CHROMOSOMAL ABERRATIONS, Test System: CHO-LB CELLS, Metabolic Activation: RAT, LIVER, S-9, AROCLOR 1254) was “inactive; negative” and the mutagenic call (Test System: AMES SALMONELLA TYPHIMURIUM, Strain/Indicator: TA97, Metabolic Activation: HAMSTER, LIVER, S-9, AROCLOR 1254 (10 OR 30%), Method: PREINCUBATION) was “inactive; negative”. For the same compound, the mutagenic call (Test System: AMES SALMONELLA TYPHIMURIUM, Strain/Indicator: TA97, Metabolic Activation: NONE, Method: PREINCUBATION) was “inactive; negative”, the mutagenic call (Test System: AMES SALMONELLA TYPHIMURIUM, Strain/Indicator: TA97, Metabolic Activation: RAT, LIVER, S-9, AROCLOR 1254 (10 OR 30%), Method: PREINCUBATION) was “inactive; negative” and the mutagenic call (Test System: AMES SALMONELLA TYPHIMURIUM, Strain/Indicator: TA97, Metabolic Activation: RAT, LIVER, S-9, AROCLOR 1254, Method: PREINCUBATION) was “inactive; negative”. The mutagenic call (Test System: AMES SALMONELLA TYPHIMURIUM, Strain/Indicator: TA98, Metabolic Activation: HAMSTER, LIVER, S-9, AROCLOR 1254 (10 OR 30%), Method: PREINCUBATION) was “inactive; negative”, the mutagenic call [4] was “inactive; negative” and the mutagenic call (Test System: AMES SALMONELLA TYPHIMURIUM, Strain/Indicator: TA98, Metabolic Activation: RAT, LIVER, S-9, AROCLOR 1254 (10 OR 30%), Method: PREINCUBATION) was “inactive; negative”. For the same compound, the mutagenic call (Test System: AMES SALMONELLA TYPHIMURIUM, Strain/Indicator: TA100, Metabolic Activation: HAMSTER, LIVER, S-9, AROCLOR 1254 (10 OR 30%), Method: PREINCUBATION) was “inactive; negative”, the mutagenic call [5] was “inactive; negative” and the mutagenic call (Test System: AMES SALMONELLA TYPHIMURIUM, Strain/Indicator: TA100, Metabolic Activation: RAT, LIVER, S-9, AROCLOR 1254 (10 OR 30%), Method: PREINCUBATION) was “inactive; negative”. The mutagenic call (Test System: AMES SALMONELLA TYPHIMURIUM, Strain/Indicator: TA102, Metabolic Activation: NONE, Method: PREINCUBATION) was “inactive; negative”, the mutagenic call (Test System: AMES SALMONELLA TYPHIMURIUM, Strain/Indicator: TA102, Metabolic Activation: RAT, LIVER, S-9, AROCLOR 1254, Method: PREINCUBATION) was “inactive; negative” and the mutagenic call (Test System: AMES SALMONELLA TYPHIMURIUM, Strain/Indicator: TA1535, Metabolic Activation: HAMSTER, LIVER, S-9, AROCLOR 1254 (10 OR 30%), Method: PREINCUBATION) was “inactive; negative”. The mutagenic call [6] was “inactive; negative”, the mutagenic call (Test System: AMES SALMONELLA TYPHIMURIUM, Strain/Indicator: TA1535, Metabolic Activation: RAT, LIVER, S-9, AROCLOR 1254 (10 OR 30%), Method: PREINCUBATION) was “inactive; negative” and the mutagenic call (Test System: AMES SALMONELLA TYPHIMURIUM, Strain/Indicator: TA1537, Metabolic Activation: HAMSTER, LIVER, S-9, AROCLOR 1254 (30%), Method: PREINCUBATION) was “inactive; negative”. The mutagenic call [7] was “inactive; negative” and the mutagenic call (Test System: AMES SALMONELLA TYPHIMURIUM, Strain/Indicator: TA1537, Metabolic Activation: RAT, LIVER, S-9, AROCLOR 1254 (30%), Method: PREINCUBATION) was “inactive; negative”.

In the case of `CN1C(=O)CC[C@H]1c1cccnc1`, the mutagenic call [4] is reported as “inactive; negative”, the mutagenic call (Test System: AMES SALMONELLA TYPHIMURIUM, Strain/Indicator: TA98, Metabolic Activation: RAT, LIVER, S-9, AROCLOR 1254 (5%), Method: PREINCUBATION) is reported as “inactive; negative” and the mutagenic call [5] is reported as “inactive; negative”. The mutagenic call (Test System: AMES SALMONELLA TYPHIMURIUM, Strain/Indicator: TA100, Metabolic Activation: RAT, LIVER, S-9, AROCLOR 1254 (5%), Method: PREINCUBATION) was “inactive; negative”, the mutagenic call [6] was “inactive; negative” and the mutagenic call (Test System: AMES SALMONELLA TYPHIMURIUM, Strain/Indicator: TA1535, Metabolic Activation: RAT, LIVER, S-9, AROCLOR 1254 (5%), Method: PREINCUBATION) was “inactive; negative”. The mutagenic call [7] was “inactive; negative”, the mutagenic call (Test System: AMES SALMONELLA TYPHIMURIUM, Strain/Indicator: TA1537, Metabolic Activation: RAT, LIVER, S-9, AROCLOR 1254 (5%), Method: PREINCUBATION) was “inactive; negative” and the mutagenic call (Test System: AMES SALMONELLA TYPHIMURIUM, Strain/Indicator: TA1538, Metabolic Activation: NONE, Method: PREINCUBATION) was “inactive; negative”. For the same compound, the mutagenic call (Test System: AMES SALMONELLA TYPHIMURIUM, Strain/Indicator: TA1538, Metabolic Activation: RAT, LIVER, S-9, AROCLOR 1254 (5%), Method: PREINCUBATION) was “inactive; negative”.
